Measured values from patent US20170118998A1, “PESTICIDAL COMPOSITIONS AND METHODS FOR USING SAME” (priority 1998, published 2017).

Legend:
Type in all cases: in vivo
American cockroaches [1] = experiment: Direct spray toxicity of rosemary oil, wintergreen oil and their blend (Example 1); conditions: sprayed with approximately 3.7 grams; one value per insect
Description: Studies were conducted to evaluate the individual toxicity, in terms of speed of action and mortality, of rosemary oil and wintergreen oil against American cockroaches, and then a blend of these two oils to determine if similar toxic effects could be obtained using a proprietary blend that was less expensive to produce and easier to employ in different end-use formulations. Methyl salicylate was used as wintergreen oil. American cockroaches were confined under a screened cap and then sprayed with approximately 3.7 grams of each test chemical using a trigger sprayer. Immediately after spraying, the insects were released into a large plastic container and observed for signs of toxicity. Three American cockroaches were used in each experiment. The times for immobilization (IM), knockdown (KD), and mortality were recorded for each test insect. An untreated control was provided.

American cockroaches [2] = experiment: Test chemical applied directly to thorax of insect using Pasteur Pipette (Table 12); conditions: 1 drop applied directly to thorax; one value per insect
[3] = system: Melon Aphids Aphis gossypii; experiment: Melon Aphids on squash (Table 11); conditions: 1 qt/acre, applied three times at one week interval
Description: A formulation (DR-A-034) consisting of 5% w/w rosemary oil, 22.5% w/w wintergreen oil, 22.5% w/w mineral oil, 0.5% w/w lecithin (emulsifier), and 49.5% w/w water was prepared and labeled Hexacide™. Hexacide™ was applied in dilute form at different rates per acre to the pests itemized below in various greenhouse and field studies. In all of these studies, positive controls consisting of conventional pesticides were utilized for comparative efficacy.
Randomized complete block design was used. Five replicates per treatment were performed. 100 gallons spray volume per acre (GPA). Latron CS-7 at 4 ml/gallon was added to all treatments. All foliar applied pesticidal compositions applied, except Admire and Platinum (soil insecticides). HEXACIDE™ Azadiractin and Pyganic applied three times at one week interval. Other products applied once.

Row | Structure (SMILES) | IM (time for immobilization) (American cockroaches [1]) [s] | Mortality (time) (American cockroaches [1]) [min] | KD (knockdown time) (American cockroaches [2]) | Mortality (time) (American cockroaches [2]) [m] | Mean % Aphids per Leaf ([3]; 6 DAT) [c %] | Mean % Aphids per Leaf ([3]; 12 DAT) [c %] | Mean % Aphids per Leaf ([3]; Pretreatment) [b %]
1 | COC(=O)c1ccccc1O [100% Methyl Salicylate, Methyl salicylate] | 45 | >2 | no KD | >5 |  |  | 
2 | C/C=C(\C)C(=O)O[C@H]1C[C@@H](OC(C)=O)[C@@]2(C(=O)OC)CO[C@H]3[C@@H](O)[C@@](C)([C@]45O[C@@]4(C)[C@H]4C[C@@H]5O[C@@H]5OC=C[C@@]54O)[C@H]4[C@]1(CO[C@]4(O)C(=O)OC)[C@@H]32 [Azadiractin] |  |  |  |  | 5.4 | 15.1 | 3.9
